{"source": "ChEMBL document CHEMBL1122435", "about": "“Pyrrolopyrimidine nucleosides. 18. Synthesis and chemotherapeutic activity of 4-amino-7-(3-deoxy-beta-D-ribofuranosyl)pyrrolo[2,3-d] pyrimidine-5-carboxamide (3'-deoxysangivamycin) and 4-amino-7-(2-deoxy-beta-D-ribofuranosyl)pyrrolo[2,3-d] pyrimidine-5-carboxamide (2'-deoxysangivamycin)” (1983)", "key": {"L1210 [1]": {"system": "L1210", "experiment": "Occurrence of drug-induced shortening of life span resulting from treatment at 100 mg/kg dose in L1210-bearing mice; y=yes", "type": "functional, organism-based", "design": "dose 100 mg/kg", "conditions": "Mus musculus"}, "L1210 [2]": {"system": "L1210", "experiment": "Increase in life span for drug treated L1210-bearing mice at the dose of 100 mg/kg upon intraperitoneal administration", "type": "functional", "conditions": "Mus musculus, L1210, ip"}, "L1210 [3]": {"system": "L1210", "experiment": "Increase in life span for drug treated L1210-bearing mice at the dose of 128 mg/kg upon intraperitoneal administration", "type": "functional", "conditions": "Mus musculus, L1210, ip"}, "L1210 [4]": {"system": "L1210", "experiment": "Increase in life span for drug treated L1210-bearing mice at the dose of 0.25 mg/kg upon intraperitoneal administration", "type": "functional", "conditions": "Mus musculus, L1210, ip"}, "L1210 [5]": {"system": "L1210", "experiment": "Occurrence of drug-induced shortening of life span resulting from treatment at 0.25 mg/kg dose in L1210-bearing mice; y=yes", "type": "functional, organism-based", "design": "dose 0.25 mg/kg", "conditions": "Mus musculus"}, "L1210 [6]": {"system": "L1210", "experiment": "Increase in life span for drug treated L1210-bearing mice at the dose of 160 mg/kg upon intraperitoneal administration", "type": "functional", "conditions": "Mus musculus, L1210, ip"}}}
{"smiles": "C[C@H]1OC(n2cc(C(N)=O)c3c(N)ncnc32)[C@H](O)[C@@H]1O", "note": "(stereo partly specified)", "values": [{"measurement": "Toxicity", "setting": "L1210 [1]", "value": "Yes"}, {"measurement": "ILS at 100 mg/kg", "setting": "L1210 [2]", "value": 5, "unit": "%"}]}
{"smiles": "NC(=O)c1cn(C2OC(CO)CC2O)c2ncnc(N)c12", "note": "(stereo unspecified)", "values": [{"measurement": "ILS at 128 mg/kg", "setting": "L1210 [3]", "value": 128, "unit": "%"}]}
{"smiles": "NC(=O)c1cn([C@@H]2O[C@H](CO)[C@@H](O)[C@H]2O)c2ncnc(N)c12", "note": "[SANGIVAMYCIN]", "values": [{"measurement": "ILS at 0.25 mg/kg", "setting": "L1210 [4]", "value": 37, "unit": "%"}, {"measurement": "Toxicity", "setting": "L1210 [5]", "value": "Yes"}]}
{"smiles": "NC(=O)c1cn([C@H]2C[C@H](O)[C@@H](CO)O2)c2ncnc(N)c12", "values": [{"measurement": "ILS at 160 mg/kg", "setting": "L1210 [6]", "value": 4, "unit": "%"}]}
